# Laboratory results: patent publication US9296723B2, “NAMPT inhibitors” (AbbVie Inc., priority 2012, dated 2016)
# What was measured:
# [1] = molecular target: T1, NAMPT (Homo sapiens, UniProt P43490); test: TR-FRET Binding Assay of NAMPT with PRPP; settings: 2 nM NAMPT, 2 nM probe, 200 µM PRPP and 2.5 mM ATP, equilibrated 16 hours
# Outline: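 TR-FRET probe displacement with 2 nM NAMPT, 2 nM probe and 1 nM Tb-anti-His antibody in the presence of 200 µM PRPP and 2.5 mM ATP, 2% DMSO (all final). Equilibrated 16 hours before reading to permit possible enzymatic modification of compounds.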
# [2] = molecular target: T1, NAMPT; test: Time-Resolved Fluorescence Resonance Energy Transfer (TR-FRET) Binding Assay of NAMPT; settings: 6.8 nM NAMPT, 200 nM probe, equilibrated 3 hours, no substrates
# Outline: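 Compound was mixed with enzyme, probe and antibody and equilibrated 3 h at room temperature. TR-FRET read at Ex 337 nm, Em 520/495 nm. Ratios were normalized to controls and fitted to a four-parameter logistic equation for IC50.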
# [3] = tested on: PC3 cells; test: NAMPT Cell Proliferation Assay (Cell Titer Glo); format: cell-based; settings: Homo sapiens, PC-3, 120 h, incubated 5 days, cell viability
# Outline: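 PC3 cells (500/well, RPMI with 10% heat-inactivated FBS) were exposed to 10-fold compound dilutions from […] for 5 days at 37 °C, 5% CO2. Viability was read with Cell Titer Glo; IC50 from sigmoidal fit of percent inhibition.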
# T1 sequence (P43490 whole entry): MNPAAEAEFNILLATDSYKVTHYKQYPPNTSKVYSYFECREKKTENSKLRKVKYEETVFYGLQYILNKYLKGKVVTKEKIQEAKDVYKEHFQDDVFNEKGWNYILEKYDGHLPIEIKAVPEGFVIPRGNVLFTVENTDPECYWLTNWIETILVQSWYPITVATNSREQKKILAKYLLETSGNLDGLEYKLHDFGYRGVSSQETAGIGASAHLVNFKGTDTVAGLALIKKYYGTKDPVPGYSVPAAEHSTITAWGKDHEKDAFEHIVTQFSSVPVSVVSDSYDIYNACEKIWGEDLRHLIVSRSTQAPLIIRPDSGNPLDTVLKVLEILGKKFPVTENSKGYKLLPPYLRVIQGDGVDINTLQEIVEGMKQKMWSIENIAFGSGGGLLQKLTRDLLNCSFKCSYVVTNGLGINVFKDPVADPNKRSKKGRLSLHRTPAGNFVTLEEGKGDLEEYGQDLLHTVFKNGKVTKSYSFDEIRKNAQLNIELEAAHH
Structure (SMILES),IC50 [1] [nM],IC50 [2] [nM],IC50 [3] [nM]
"CC1(C(=O)N2CC(Oc3ccc(NC(=O)N4CC(c5cccnc5)C4)cc3)C2)CC1 [Example 135, N-[4-({1-[(1-methylcyclopropyl)carbonyl]azetidin-3-yl}oxy)phenyl]-3-(pyridin-3-yl)azetidine-1-carboxamide]",0.376,28.1,8.69
"CCCC(C)C(=O)N1CC(Oc2ccc(NC(=O)N3CC(c4cccnc4)C3)cc2)C1 (stereo not drawn) [Example 136, N-(4-{[1-(2-methylpentanoyl)azetidin-3-yl]oxy}phenyl)-3-(pyridin-3-yl)azetidine-1-carboxamide]",0.544,15,7.42
"CC(=O)N1CC(Oc2ccc(NC(=O)N3CC(c4cccnc4)C3)cc2)C1 [Example 137, N-{4-[(1-acetylazetidin-3-yl)oxy]phenyl}-3-(pyridin-3-yl)azetidine-1-carboxamide]",0.44,98.8,51.6
"O=C(CC1CCCCC1)N1CC(Oc2ccc(NC(=O)N3CC(c4cccnc4)C3)cc2)C1 [Example 138, N-(4-{[1-(cyclohexylacetyl)azetidin-3-yl]oxy}phenyl)-3-(pyridin-3-yl)azetidine-1-carboxamide]",0.596,11.4,8.38
"O=C(Nc1ccc(OC2CN(C(=O)C3CCCCC3)C2)cc1)N1CC(c2cccnc2)C1 [Example 139, N-(4-{[1-(cyclohexylcarbonyl)azetidin-3-yl]oxy}phenyl)-3-(pyridin-3-yl)azetidine-1-carboxamide]",0.442,14.4,7.81
"O=C(Nc1ccc(OC2CN(C(=O)C3CC3)C2)cc1)N1CC(c2cccnc2)C1 [Example 140, N-(4-{[1-(cyclopropylcarbonyl)azetidin-3-yl]oxy}phenyl)-3-(pyridin-3-yl)azetidine-1-carboxamide]",0.181,43,26.3
"O=C(Nc1ccc(OC2CN(C(=O)c3cccs3)C2)cc1)N1CC(c2cccnc2)C1 [Example 141, 3-(pyridin-3-yl)-N-(4-{[1-(thiophen-2-ylcarbonyl)azetidin-3-yl]oxy}phenyl)azetidine-1-carboxamide]",0.249,17.6,8.33
"O=C(Nc1ccc(OC2CN(C(=O)C3CCCC3)C2)cc1)N1CC(c2cccnc2)C1 [Example 142, N-(4-{[1-(cyclopentylcarbonyl)azetidin-3-yl]oxy}phenyl)-3-(pyridin-3-yl)azetidine-1-carboxamide]",0.339,24.6,7.91
"O=C(CN1CCOCC1)N1CC(Oc2ccc(NC(=O)N3CC(c4cccnc4)C3)cc2)C1 [Example 143, N-(4-{[1-(morpholin-4-ylacetyl)azetidin-3-yl]oxy}phenyl)-3-(pyridin-3-yl)azetidine-1-carboxamide]",0.763,136,82.2
"O=C(Nc1ccc(OC2CN(C(=O)c3cncs3)C2)cc1)N1CC(c2cccnc2)C1 [Example 144, 3-(pyridin-3-yl)-N-(4-{[1-(1,3-thiazol-5-ylcarbonyl)azetidin-3-yl]oxy}phenyl)azetidine-1-carboxamide]",0.313,25.6,9.04
"Cc1noc(C)c1C(=O)N1CC(Oc2ccc(NC(=O)N3CC(c4cccnc4)C3)cc2)C1 [Example 145, N-[4-({1-[(3,5-dimethyl-1,2-oxazol-4-yl)carbonyl]azetidin-3-yl}oxy)phenyl]-3-(pyridin-3-yl)azetidine-1-carboxamide]",0.6,90.5,73.9
"O=C(Nc1ccc(OC2CN(C(=O)c3ccsc3)C2)cc1)N1CC(c2cccnc2)C1 [Example 146, 3-(pyridin-3-yl)-N-(4-{[1-(thiophen-3-ylcarbonyl)azetidin-3-yl]oxy}phenyl)azetidine-1-carboxamide]",0.27,15.1,9.07
"O=C(Nc1ccc(OC2CN(C(=O)c3ccno3)C2)cc1)N1CC(c2cccnc2)C1 [Example 148, N-(4-{[1-(1,2-oxazol-5-ylcarbonyl)azetidin-3-yl]oxy}phenyl)-3-(pyridin-3-yl)azetidine-1-carboxamide]",0.321,27.7,16.7
"CN1CCN(CC(=O)N2CC(Oc3ccc(NC(=O)N4CC(c5cccnc5)C4)cc3)C2)CC1 [Example 149, N-[4-({1-[(4-methylpiperazin-1-yl)acetyl]azetidin-3-yl}oxy)phenyl]-3-(pyridin-3-yl)azetidine-1-carboxamide]",0.219,22.1,76.5

# The remaining lines, values ahead:
IC50 [1] [nM],IC50 [2] [nM],IC50 [3] [nM],Structure (SMILES)
2.85,435,1050,"CN(C)CCC(=O)N1CC(Oc2ccc(NC(=O)N3CC(c4cccnc4)C3)cc2)C1 [Example 150, N-(4-{[1-(N,N-dimethyl-beta-alanyl)azetidin-3-yl]oxy}phenyl)-3-(pyridin-3-yl)azetidine-1-carboxamide]"
0.42,5.18,6.04,"CC1(C(=O)N2CC(Oc3ccc(NC(=O)N4CC(c5cccnc5)C4)cc3)C2)CCCCC1 [Example 152, N-[4-({1-[(1-methylcyclohexyl)carbonyl]azetidin-3-yl}oxy)phenyl]-3-(pyridin-3-yl)azetidine-1-carboxamide]"
0.436,12.4,8.03,"O=C(CC1CCCC1)N1CC(Oc2ccc(NC(=O)N3CC(c4cccnc4)C3)cc2)C1 [Example 153, N-(4-{[1-(cyclopentylacetyl)azetidin-3-yl]oxy}phenyl)-3-(pyridin-3-yl)azetidine-1-carboxamide]"
0.425,399,130,"O=C(CN1CCCC1)N1CC(Oc2ccc(NC(=O)N3CC(c4cccnc4)C3)cc2)C1 [Example 155, 3-(pyridin-3-yl)-N-(4-{[1-(pyrrolidin-1-ylacetyl)azetidin-3-yl]oxy}phenyl)azetidine-1-carboxamide]"
0.237,2.71,74.7,"CC(C)(O)C(=O)N1CCC(c2ccc(NC(=O)N3CC(c4cccnc4F)C3)cc2)CC1 [Example 156, 3-(2-fluoropyridin-3-yl)-N-{4-[1-(2-hydroxy-2-methylpropanoyl)piperidin-4-yl]phenyl}azetidine-1-carboxamide]"
5.79,8.62,905,"CC(C)(O)C(=O)N1CCC(c2ccc(NC(=O)N3CC(c4cccnc4Cl)C3)cc2)CC1 [Example 161, 3-(2-chloropyridin-3-yl)-N-{4-[1-(2-hydroxy-2-methylpropanoyl)piperidin-4-yl]phenyl}azetidine-1-carboxamide]"
0.574,357,269,"O=C(CC1CCOCC1)N1CCC(Oc2ccc(NC(=O)N3CCN(c4cccnc4)CC3)cc2)CC1 [Example 162, 4-(pyridin-3-yl)-N-(4-{[1-(tetrahydro-2H-pyran-4-ylacetyl)piperidin-4-yl]oxy}phenyl)piperazine-1-carboxamide]"
0.295,7.23,34.4,"CCCCC(=O)N1CCC(c2ccc(NC(=O)N3CC(c4cccnc4)C3)cc2)CC1 [Example 163, N-[4-(1-pentanoylpiperidin-4-yl)phenyl]-3-(pyridin-3-yl)azetidine-1-carboxamide]"
0.313,15.9,25.9,"CC1CC1C(=O)N1CCC(c2ccc(NC(=O)N3CC(c4cccnc4)C3)cc2)CC1 (stereo not drawn) [Example 164, N-(4-{1-[(2-methylcyclopropyl)carbonyl]piperidin-4-yl}phenyl)-3-(pyridin-3-yl)azetidine-1-carboxamide]"
0.389,14.4,61.9,"O=C(CC1C[C@@H]2CC[C@H]1C2)N1CCC(c2ccc(NC(=O)N3CC(c4cccnc4)C3)cc2)CC1 (stereo partly drawn) [Example 165, N-(4-{1-[(1S,4R)-bicyclo[2.2.1]hept-2-ylacetyl]piperidin-4-yl}phenyl)-3-(pyridin-3-yl)azetidine-1-carboxamide]"
0.337,17.2,66.4,"CC(C)CCC(=O)N1CCC(c2ccc(NC(=O)N3CC(c4cccnc4)C3)cc2)CC1 [Example 166, N-{4-[1-(4-methylpentanoyl)piperidin-4-yl]phenyl}-3-(pyridin-3-yl)azetidine-1-carboxamide]"
0.319,8.41,23.5,"CCC(C)CC(=O)N1CCC(c2ccc(NC(=O)N3CC(c4cccnc4)C3)cc2)CC1 (stereo not drawn) [Example 167, N-{4-[1-(3-methylpentanoyl)piperidin-4-yl]phenyl}-3-(pyridin-3-yl)azetidine-1-carboxamide]"
0.503,28.9,45,"CCOCCC(=O)N1CCC(c2ccc(NC(=O)N3CC(c4cccnc4)C3)cc2)CC1 [Example 168, N-{4-[1-(3-ethoxypropanoyl)piperidin-4-yl]phenyl}-3-(pyridin-3-yl)azetidine-1-carboxamide]"
0.304,5.36,7.98,"CCC(C)(C)C(=O)N1CCC(c2ccc(NC(=O)N3CC(c4cccnc4)C3)cc2)CC1 [Example 169, N-{4-[1-(2,2-dimethylbutanoyl)piperidin-4-yl]phenyl}-3-(pyridin-3-yl)azetidine-1-carboxamide]"
0.364,7.07,14.8,"CC(C)(C)CC(=O)N1CCC(c2ccc(NC(=O)N3CC(c4cccnc4)C3)cc2)CC1 [Example 170, N-{4-[1-(3,3-dimethylbutanoyl)piperidin-4-yl]phenyl}-3-(pyridin-3-yl)azetidine-1-carboxamide]"
